Measured values as given in patent US7115718B2, “Haptens, immunogens, antibodies and conjugates to 2-oxo-3-hydroxy-LSD” (Randox :abpratproes :o, oted, priority 2001, dated 2006).

What was measured:
[1] = test system: antiserum raised to immunogen A (hapten A-BSA); test: Competitive ELISA microtiter plate assay for 2-oxo-3-hydroxy-LSD, cross-reactivity with LSD and its metabolites; assay type: binding, sheep; details: for % CR, percentage cross-reactivity based on specificity to 2-oxo-3-hydroxy LSD: % CR = IC50 2-oxo / IC50 LSD x 100; for % B/B0: B0 = absorbance at 0 ng/ml; for A450: absorbance at 450 nm, conjugate A (hapten A-HRP)
Procedure: An aqueous solution of the immunogen prepared in Example 5 was formulated with Freund's Complete Adjuvant (FCA) to form an emulsion consisting of 4 mg/ml inmmunogen in 50% (v/v) FCA. Three sheep were immunized with this emulsion (1° immunisation), 0.25 ml being subcutaneously -injected at each of four sites in the flank of each animal. The next immunisation (Boost 1) contained 2 mg/ml immunogen and subsequent immunizations (boosts 2 to 25) contained 1 mg/ml. All boosts were emulsified in 50% (v/v) Freund's Incomplete Adjuvant (FIA) and administered in the same manner as the 1° immunisation at monthly intervals for 1 year. Blood sampling took place 7 to 14 days after each boost. Each sample was processed to produce antiserum, which was further purified by caprylic acid and ammonium sulfate precipitation to yield an immunoglobulin G (IgG) fraction. The IgG fraction was evaluated by competitive ELISA microtitre plate assay, as described in Example 14 below.
The wells of an enhanced binding 96 well polystyrene ricrotiter plate were coated with the IgG fraction of the antiserum raised to immunogen A (Example 5) of the present invention, diluted in 10 mM Tris, pH8.5 (125 μl/well). The appropriate antibody coating dilution was determined using standard ELISA chequerboard techniques. The plate was incubated for 2 hours at 37° C., washed 4 times with Tris buffered saline containing Tween 20 (TBST) and tapped dry. Standard solutions of 2-oxo-3-hydroxy-LSD were prepared in TBST at 0, 10, 50, 100, 250, 500, 1000 and 2000 ng/ml and 50 μl of each was added to the appropriate wells (FIG. 4). The conjugate (detection reagent) of the present invention was diluted in Tris buffer (pH7.2) containing EDTA, D-mannitol, sucrose, thimerosal and BSA, the appropriate dilution being determined by standard ELISA chequerboard techniques, and 75 μl was added to the appropriate wells (FIG. 4). The plate was incubated at 37° C. for 2 hours. Excess unbound conjugate was removed by washing 6 times over a 10 minute period with TBST.
125 μl of tetramethylbenzidine (TMB) substrate solution was added to each well of the plate, which was then incubated for 15 to 20 minutes in the dark at room temperature. The reaction was terminated by addition of 125 μl 0.2M H2SO4 to each well. The absorbance was then measured at 450 nm using a microtiter plate reader.
Standard solutions of LSD and its metabolites were prepared in TBST at 0, 10.0, 50.0, 100.0, 250.0, 500.0, 1000 and 2000 ng/ml. Employing each series of standards in the present competitive ELISA, calibration curves were generated and these were used to determine the cross-reactivity of the immunoassays with LSD and its metabolites, cross-reactivity being calculated according to the following formula: % CR=IC502-oxo/IC50LSD×100 where % CR is the percentage cross-reactivity, IC502-oxo is the concentration of 2-oxo-3-hydroxy-LSD that causes 50% displacement of signal and IC50LSD is the concentration of LSD or LSD metabolite that causes 50% displacement of signal.

[2] = test system: antibodies generated to immunogen 4; details: cited from earlier work
[3] = test system: antibodies generated to immunogen 8; details: cited from earlier work
[4] = human urine; cited from earlier work
[5] = test system: antibodies of U.S. Pat. No. 6,207,396 B1; details: antibodies specific to d-LSD; cited from earlier work
[6] = test system: antibodies obtained in EP 1 148 339 A2; details: when compared to 2-oxo-3-hydroxy-LSD; cited from earlier work
[7] = in vivo; cited from earlier work
[8] = in vivo; cited from earlier work; remark: listed apart in the source

SMILES | specificity / cross-reactivity of the assay, in words [1] | % CR, percentage cross-reactivity based on specificity to 2-oxo-3-hydroxy LSD [1] | % B/B0 ([1]; standard 10 ng/ml) | A450 ([1]; standard 10 ng/ml) | % B/B0 ([1]; standard 50 ng/ml) | A450 ([1]; standard 50 ng/ml) | % B/B0 ([1]; standard 100 ng/ml) | A450 ([1]; standard 100 ng/ml) | % B/B0 ([1]; standard 250 ng/ml) | A450 ([1]; standard 250 ng/ml) | % B/B0 ([1]; standard 500 ng/ml) | A450 ([1]; standard 500 ng/ml) | % B/B0 ([1]; standard 1000 ng/ml) | A450 ([1]; standard 1000 ng/ml) | % B/B0 ([1]; standard 2000 ng/ml) | A450 ([1]; standard 2000 ng/ml) | cross-reactivity [2] | cross-reactivity [3] | cross-reactivity [5] | cross-reactivity [6] | also measured
CCN(CC)C(=O)[C@@H]1C=C2c3cccc4c3C(O)(C[C@H]2N(C)C1)C(=O)N4 (stereo partly drawn) [2-Oxo-3-Hydroxy-LSD, 2-oxo-3-hydroxy-LSD] | highly specific | 100% | 78.47% | 1.396 | 59.36% | 1.056 | 50.08% | 0.891 | 37.10% | 0.660 | 28.89% | 0.514 | 21.98% | 0.391 | 17.88% | 0.318 | 50% | < 20% | 1.82% |  | average concentration relative to that of LSD [4]: 20 times
CCN(CC)C(=O)[C@@H]1C=C2c3cccc4[nH]cc(c34)C[C@H]2NC1 [Nor LSD, nor-LSD] | very low levels of cross-reactivity | <5% | 99.0% | 1.772 | 98.7% | 1.767 | 98.5% | 1.763 | 97.1% | 1.738 | 94.2% | 1.686 | 91.5% | 1.638 | 86.7% | 1.552 | 20% | 40% |  | 1.8–4.6% | 
CCN(CC)C(=O)[C@H]1C=C2c3cccc4[nH]cc(c34)C[C@H]2N(C)C1 [d-iso-LSD] |  |  |  |  |  |  |  |  |  |  |  |  |  |  |  |  |  |  | 0.04% |  | hallucinogenic activity, in words [7]: inactive
CCN(CC)C(=O)[C@@H]1C=C2c3cccc4[nH]cc(c34)C[C@H]2N(C)C1 [LSD, Lysergic acid diethylamide] | very low levels of cross-reactivity | <5% | 99.28% | 1.792 | 98.45% | 1.777 | 98.34% | 1.775 | 96.40% | 1.740 | 91.58% | 1.653 | 87.09% | 1.572 | 80.50% | 1.453 | 100% | 100% |  | 74.9–84.4% | excreted unchanged in urine [8]: less than 1%; potency as hallucinogen relative to mescaline [7]: 4500–9275 times; potency as hallucinogen relative to psilocybin [7]: 10–150 times
